# Patent publication US20220202771A1, “Antidepressants for the Treatment or Prevention of Memory Loss and/or Cognitive Decline or Dysfunction in Aging” (UNIVERSITY OF NORTH TEXAS HEALTH SCIENCE CENTER AT FORT …, priority 2019, published 2022)
# Counter-ions that a name gives are not always drawn. Like-named read-outs stand apart in the source and are kept apart here.
# Legend:
# [1] = tested on: individuals with a diagnosis of MCI with DepE scores >=2
# Experimental: (§1) Next, the inventors conducted an investigator-initiated clinical trial (NCT02590874). […] Treatment duration was 4 months of duloxetine versus placebo. The initial dosage consisted of 30 mg/day duloxetine or placebo; after two weeks, dosage was increased to 60 mg/day. Dosage during the last two weeks of the 4-month study was reduced to 30 mg/day. Secondary endpoints of change in Repeatable Battery for the Assessment of Neuropsychological Status (RBANS) memory scores from baseline to study completion were analyzed. In this study, the inventors recruited n=16 participants with clinical diagnosis of amnestic MCI (single or multi-domain).
# [2] = tested on: individuals with a diagnosis of MCI with elevated DepE scores; conditions: treatment group, follow-up after 4 months
# Experimental: as §1
# Fasting blood samples were collected at baseline and follow-up. Several plasma biomarkers were assessed to determine neurodegeneration over treatment duration: Neurofilament light (NfL)(FIG. 6), Tau (FIG. 5), Aβ40 (FIG. 4) and Aβ42 (FIG. 3).
# [3] = tested on: individuals with a diagnosis of MCI with DepE scores >=2; conditions: 4 months duloxetine 30-60 mg/day, n=16 participants in the trial
# Experimental: Treatment duration was 4 months of duloxetine versus placebo. The initial dosage consisted of 30 mg/day duloxetine or placebo; after two weeks, dosage was increased to 60 mg/day. Dosage during the last two weeks of the 4-month study was reduced to 30 mg/day. […] In this study, the inventors recruited n=16 participants with clinical diagnosis of amnestic MCI (single or multi-domain). N=14 subjects enrolled were of Mexican American ethnicity.
# [4] = Baseline, amnestic MCI participants, duloxetine group before treatment
# [5] = Follow-up, 4 months treatment, 30 mg/day then 60 mg/day, last two weeks 30 mg/day, *p < .05
structure (smiles),measurement,setting,value
"CNCC[C@H](Oc1cccc2ccccc12)c1cccs1 [Duloxetine, N-methyl-γ-(1-naphthalenyloxy)-2-thiopropanamine hydrochloride]",RBANS Delayed Memory,[1]; [4],76.63(11.01)
same,RBANS Immediate Memory,[1]; [4],74.62(11.17)
same,RBANS Total,[1]; [4],72.37(5.12)
same,RBANS Delayed Memory,[1]; [5],91.50(6.98)*
same,RBANS Immediate Memory,[1]; [5],88.75(11.43)*
same,RBANS Total,[1]; [5],80.37(5.31)*
same,effect on memory abilities,"[1]; MCI patients elevated in the depressive endophenotype, summary statement of the clinical trial",significant benefit
same,change in RBANS Delayed Memory scores over treatment duration,"[1]; treatment group, 4 months, no significant change in the placebo group (p<0.05), FIG. 2",significant improvement
same,"markers of neurodegeneration (NfL, Tau, Aβ40, Aβ42) at follow-up",[2]; MCI cases with elevated DepE scores,primarily stable
same,"plasma Aβ42, baseline versus follow-up","[2]; placebo group showed significant increase, FIG. 3",no significant differences
same,"plasma Aβ40, baseline versus follow-up","[2]; placebo group showed significant increase, FIG. 4",no significant differences
same,Serious Adverse Effects (SAEs),[3],no Serious Adverse Effects (SAEs) were identified
